Data on 1 compound can be found in patent US20240173323A1, “COMBINATION THERAPY FOR CANCER TREATMENT” (Takeda Pharmaceutical Company Limited, priority 2021, published 2024).

Entries after “also recorded” stand apart in the source; their conditions may differ.

The assay relates to PHTXS-13O human primary ovarian cancer xenografts. As to the kind of experiment: In vivo antitumor activity of Compound 1 in combination with PARP inhibitor in Patient Derived Xenograft (PDX) model. To be noted: PHTXS-13O PDX in nude mice. As for the experimental part: To investigate in vivo antitumor activity of Compound 1 in combination with PARP inhibitor, tests using Patient Derived Xenograft (PDX) model were conducted. Patient Derived Tumors were inoculated by the following Method.
Method: Patient Derived Tumors were maintained in nude mice by subcutaneous inoculation of tumor pieces (approx. 2×2×2 mm) into nude mice. Mice with tumor size of approximately 130 mm^3 (e.g., 125-130 mm^3) for xenograft studies were randomly assigned to dose groups on the day (Day 0) before start date of dosing.
Compound 1 (crystalline form I) was suspended in solution comprising 0.5 w/v % methylcellulose and administered orally to mice.
Tumor size was measured by caliper and tumor volume was estimated using the equation V=(LW^2)/2, where L and W are tumor length and width, respectively and reported in cubic millimeters.
Statistical analyses of combination effect for tumor growth was conducted as follows; […]
For synergy analyses, the observed differences in the log tumor values were used to calculate AUC values for each animal In instances when an animal in a treatment group was removed from the study, the last observed tumor value was carried forward through all subsequent time points. The AUC for the control, or vehicle, group was calculated using the predicted values from the pairwise models described above. […]
On the technique in general: Xenograft models place foreign cells or tissue in a host animal.

In the case of `Cc1[nH]ncc1-c1cc2nc([C@@H]3CC4CCN3CC4)[nH]c(=O)c2s1` [Compound 1, 2-[(2S)-1-azabicyclo[2.2.2]oct-2-yl]-6-(3-methyl-1H-pyrazol-4-yl)thieno[3,2-d]pyrimidin-4(3H)-one], the “antitumor activity (tumor volume) of Compound 1 combined with olaparib” value (Compound 1 40 or 60 mg/kg once daily orally Day 1-14 + olaparib 25 or 50 mg/kg daily orally Days 1-14, compared to either single treatment alone (FIG. 2)) was “good antitumor efficacy; also recorded: strong antitumor activity”. Moreover, under “Compound 1 40 or 60 mg/kg once daily orally Day 1-21 + niraparib 25 or 50 mg/kg daily orally Days 1-21, compared to either single treatment alone (FIG. 1)”, the “antitumor activity (tumor volume) of Compound 1 combined with niraparib” value is “good antitumor efficacy; also recorded: strong antitumor activity”.
